Test system: HIV in the HTLV-1 transformed cell line MT-4
Experiment: organism not typed
Assay type: cell-based
Details: MT4, 96 h, MT-4 cells; luciferase/cell titer glo readout after 96 hours; 10 point dose response

Row | Compound | IC50 [nM]
1 | Cc1c(-c2c(C)c3c(c(C)c2[C@H](OC(C)(C)C)C(=O)O)CN(c2nnc(-c4cccc(F)c4)o2)C3)cc(F)c2c1CCCO2 (atropisomer, axis not shown; (M)) [Example 201, (S)-2-(tert-butoxy)-2-((M)-6-(8-fluoro-5-methylchroman-6-yl)-2-(5-(3-fluorophenyl)-1,3,4-oxadiazol-2-yl)-4,7-dimethylisoindolin-5-yl)acetic acid] | 387
2 | Cc1c(-c2c(C)c3c(c(C)c2[C@H](OC(C)(C)C)C(=O)O)CN(c2nc4ccccc4o2)C3)cc(F)c2c1CCCO2 (atropisomer, axis not shown; (M)) [Example 202, (S)-2-((M)-2-(benzo[d]oxazol-2-yl)-6-(8-fluoro-5-methylchroman-6-yl)-4,7-dimethylisoindolin-5-yl)-2-(tert-butoxy)acetic acid] | 124
3 | Cc1c(-c2c(C)c3c(c(C)c2[C@H](OC(C)(C)C)C(=O)O)CN(c2nnc(Cc4ccc(F)c(F)c4)o2)C3)cc(F)c2c1CCCO2 (atropisomer, axis not shown; (M)) [Example 203, (S)-2-(tert-butoxy)-2-((M)-2-(5-(3,4-difluorobenzyl)-1,3,4-oxadiazol-2-yl)-6-(8-fluoro-5-methylchroman-6-yl)-4,7-dimethylisoindolin-5-yl)acetic acid] | 63
4 | Cc1c(-c2c(C)c3c(c(C)c2[C@H](OC(C)(C)C)C(=O)O)CN(c2nc4cc(F)ccc4o2)C3)cc(F)c2c1CCCO2 (atropisomer, axis not shown; (M)) [Example 204, (S)-2-(tert-butoxy)-2-((M)-6-(8-fluoro-5-methylchroman-6-yl)-2-(5-fluorobenzo[d]oxazol-2-yl)-4,7-dimethylisoindolin-5-yl)acetic acid] | 665
5 | Cc1c(-c2c(C)c3c(c(C)c2[C@H](OC(C)(C)C)C(=O)O)CN(C(=O)N2CCCC[C@H]2C)C3)cc(F)c2c1CCCO2 (atropisomer, axis not shown; (M)) [Example 205, (S)-2-(tert-butoxy)-2-((M)-6-(8-fluoro-5-methylchroman-6-yl)-4,7-dimethyl-2-((M)-2-methylpiperidine-1-carbonyl)isoindolin-5-yl)acetic acid] | 4
6 | Cc1c(-c2c(C)c3c(c(C)c2[C@H](OC(C)(C)C)C(=O)O)CN(C(=O)N2CCCC(C)(C)CC2)C3)cc(F)c2c1CCCO2 (atropisomer, axis not shown; (M)) [Example 206, (S)-2-(tert-butoxy)-2-((M)-2-(4,4-dimethylazepane-1-carbonyl)-6-(8-fluoro-5-methylchroman-6-yl)-4,7-dimethylisoindolin-5-yl)acetic acid] | 5
7 | Cc1c(-c2c(C)c3c(c(C)c2[C@H](OC(C)(C)C)C(=O)O)CN(C(=O)NCC(C)(C)C)C3)cc(F)c2c1CCCO2 (atropisomer, axis not shown; (M)) [Example 207, (S)-2-(tert-butoxy)-2-((M)-6-(8-fluoro-5-methylchroman-6-yl)-4,7-dimethyl-2-(neopentylcarbamoyl)isoindolin-5-yl)acetic acid] | 4
8 | Cc1c(-c2c(C)c3c(c(C)c2[C@H](OC(C)(C)C)C(=O)O)CN(C(=O)N2CCCC2)C3)cc(F)c2c1CCCO2 (atropisomer, axis not shown; (M)) [Example 208, (S)-2-(tert-butoxy)-2-((M)-6-(8-fluoro-5-methylchroman-6-yl)-4,7-dimethyl-2-(pyrrolidine-1-carbonyl)isoindolin-5-yl)acetic acid] | 4
9 | Cc1c(-c2c(C)c3c(c(C)c2[C@H](OC(C)(C)C)C(=O)O)CN(C(=O)N2CCOC[C@@H]2C)C3)cc(F)c2c1CCCO2 (atropisomer, axis not shown; (M)) [Example 209, (S)-2-(tert-butoxy)-2-((M)-6-(8-fluoro-5-methylchroman-6-yl)-4,7-dimethyl-2-((S)-3-methylmorpholine-4-carbonyl)isoindolin-5-yl)acetic acid] | 23
10 | Cc1c(-c2c(C)c3c(c(C)c2[C@H](OC(C)(C)C)C(=O)O)CN(C(=O)Nc2cccc(F)c2)C3)cc(F)c2c1CCCO2 (atropisomer, axis not shown; (M)) [Example 210, (S)-2-(tert-butoxy)-2-((M)-6-(8-fluoro-5-methylchroman-6-yl)-2-((3-fluorophenyl)carbamoyl)-4,7-dimethylisoindolin-5-yl)acetic acid] | 14
11 | Cc1c(-c2c(C)c3c(c(C)c2[C@H](OC(C)(C)C)C(=O)O)CN(C(=O)N2CCC(C)(C)CC2)C3)cc(F)c2c1CCCO2 (atropisomer, axis not shown; (M)) [Example 211, (S)-2-(tert-butoxy)-2-((M)-2-(4,4-dimethylpiperidine-1-carbonyl)-6-(8-fluoro-5-methylchroman-6-yl)-4,7-dimethylisoindolin-5-yl)acetic acid] | 5
12 | Cc1c(-c2c(C)c3c(c(C)c2[C@H](OC(C)(C)C)C(=O)O)CN(C(=O)N2CCC[C@@H]2C)C3)cc(F)c2c1CCCO2 (atropisomer, axis not shown; (M)) [Example 212, (S)-2-(tert-butoxy)-2-((M)-6-(8-fluoro-5-methylchroman-6-yl)-4,7-dimethyl-2-((S)-2-methylpyrrolidine-1-carbonyl)isoindolin-5-yl)acetic acid] | 2
13 | Cc1c(-c2c(C)c3c(c(C)c2[C@H](OC(C)(C)C)C(=O)O)CN(C(=O)N2CCC(F)(F)CC2)C3)cc(F)c2c1CCCO2 (atropisomer, axis not shown; (M)) [Example 213, (S)-2-(tert-butoxy)-2-((M)-2-(4,4-difluoropiperidine-1-carbonyl)-6-(8-fluoro-5-methylchroman-6-yl)-4,7-dimethylisoindolin-5-yl)acetic acid] | 3
14 | Cc1c(-c2c(C)c3c(c(C)c2[C@H](OC(C)(C)C)C(=O)O)CN(C(=O)N2CCC(C)(C)C2)C3)cc(F)c2c1CCCO2 (atropisomer, axis not shown; (M)) [Example 214, (S)-2-(tert-butoxy)-2-((M)-2-(3,3-dimethylpyrrolidine-1-carbonyl)-6-(8-fluoro-5-methylchroman-6-yl)-4,7-dimethylisoindolin-5-yl)acetic acid] | 3
15 | Cc1c(-c2c(C)c3c(c(C)c2[C@H](OC(C)(C)C)C(=O)O)CN(C(=O)C(=O)N2CCCCC2)C3)cc(F)c2c1CCCO2 (atropisomer, axis not shown; (M)) [Example 215] | 10
16 | Cc1c(-c2c(C)c3c(c(C)c2[C@H](OC(C)(C)C)C(=O)O)CN(Cc2cccc4c2OCO4)C3)cc(F)c2c1CCCO2 (atropisomer, axis not shown; (M)) [Example 216, (S)-2-((M)-2-(benzo[d][1,3]dioxol-4-ylmethyl)-6-(8-fluoro-5-methylchroman-6-yl)-4,7-dimethylisoindolin-5-yl)-2-(tert-butoxy)acetic acid] | 4
17 | Cc1c(-c2c(C)c3c(c(C)c2[C@H](OC(C)(C)C)C(=O)O)CN(C(=O)Oc2ccccc2)C3)cc(F)c2c1CCCO2 (atropisomer, axis not shown; (M)) [Example 217, (S)-2-(tert-butoxy)-2-((M)-6-(8-fluoro-5-methylchroman-6-yl)-4,7-dimethyl-2-(phenoxycarbonyl)isoindolin-5-yl)acetic acid] | 12
18 | Cc1c(-c2c(C)c3c(c(C)c2[C@H](OC(C)(C)C)C(=O)O)CN(S(=O)(=O)c2cccc(F)c2)C3)cc(F)c2c1CCCO2 (atropisomer, axis not shown; (M)) [Example 218, (S)-2-(tert-butoxy)-2-((M)-6-(8-fluoro-5-methylchroman-6-yl)-2-((3-fluorophenyl)sulfonyl)-4,7-dimethylisoindolin-5-yl)acetic acid] | 11
19 | Cc1c(-c2c(C)c3c(c(C)c2[C@H](OC(C)(C)C)C(=O)O)CN(C(=O)c2cc(F)ccc2F)C3)cc(F)c2c1CCCO2 (atropisomer, axis not shown; (M)) [Example 285, (S)-2-(tert-butoxy)-2-((M)-2-(2,5-difluorobenzoyl)-6-(8-fluoro-5-methylchroman-6-yl)-4,7-dimethylisoindolin-5-yl)acetic acid] | 2
20 | COc1ccc(C(=O)N2Cc3c(C)c(-c4cc(F)c5c(c4C)CCCO5)c([C@H](OC(C)(C)C)C(=O)O)c(C)c3C2)c(C)c1 (atropisomer, axis not shown; (M)) [Example 286, (S)-2-(tert-butoxy)-2-((M)-6-(8-fluoro-5-methylchroman-6-yl)-2-(4-methoxy-2-methylbenzoyl)-4,7-dimethylisoindolin-5-yl)acetic acid] | 11
21 | Cc1c(-c2c(C)c3c(c(C)c2[C@H](OC(C)(C)C)C(=O)O)CN(C(=O)c2cccc(F)c2)C3)cc(F)c2c1NCCO2 (atropisomer, axis not shown; (M)) [Example 301, (S)-2-(tert-butoxy)-2-(6-((M)-8-fluoro-5-methyl-3,4-dihydro-2H-benzo[b][1,4]oxazin-6-yl)-2-(3-fluorobenzoyl)-4,7-dimethylisoindolin-5-yl)acetic acid] | 5
22 | Cc1c(-c2c(C)c3c(c(C)c2[C@H](OC(C)(C)C)C(=O)O)CN(C(=O)N2CCC(F)(F)C2)C3)ccc2c1NCCO2 (atropisomer, axis not shown; (M)) [Example 312, (S)-2-(tert-butoxy)-2-((M)-2-(3,3-difluoropyrrolidine-1-carbonyl)-4,7-dimethyl-6-(5-methyl-3,4-dihydro-2H-benzo[b][1,4]oxazin-6-yl)isoindolin-5-yl)acetic acid] | 6
23 | Cc1ccc(-c2c(C)c3c(c(C)c2C(OC(C)(C)C)C(=O)O)CN(Cc2ccc(F)cc2)C3)cc1 (stereo not shown) [Example 1, 2-(tert-Butoxy)-2-(2-(4-fluorobenzyl)-4,7-dimethyl-6-(p-tolyl)isoindolin-5-yl)acetic acid] | 35
24 | Cc1ccc(-c2c(C)c3c(c(C)c2[C@H](OC(C)(C)C)C(=O)O)CN(Cc2ccc(F)cc2)C3)cc1 [Example 2, (S)-2-(tert-Butoxy)-2-(2-(4-fluorobenzyl)-4,7-dimethyl-6-(p-tolyl)isoindolin-5-yl)acetic acid] | 36
25 | Cc1ccc(-c2c(C)c3c(c(C)c2[C@H](OC(C)(C)C)C(=O)O)CN(Cc2cccc(F)c2F)C3)cc1 [Example 3, (S)-2-(tert-butoxy)-2-(2-(2,3-difluorobenzyl)-4,7-dimethyl-6-(p-tolyl)isoindolin-5-yl)acetic acid] | 40

From patent publication US10112899B2 (ViiV HEALTHCARE UK LIMITED, priority 2014, dated 2018)
